Assay results taken from patent US8435978B2, “Substituted sulfonamide compounds” (Gruenenthal GmbH, priority 2006, dated 2013).

Experiments:
human B1R receptor = molecular target: T1, human B1R receptor (Homo sapiens, UniProt P46663); experiment: Functional study on the bradykinin receptor 1 (B1R), FLIPR Ca2+ assay, hB1R cells; assay type: cell-based; conditions: agonist Lys-Des-Arg9-bradykinin 0.5 nM, % inhibition compared with the maximum achievable inhibition; for inhibition at 10 µM: CHO-K1, test substance 10 μM, read-out: B1R Antagonism, human [10 μM] % Inhibition; for B1R Antagonism, human [10 μM] % Inhibition: test substance 10 μM, hB1R CHO K1 cells
T1 construct: host or cells: CHO K1 cells (Chinese hamster ovary), stably transfected
T1 sequence (P46663 1-353): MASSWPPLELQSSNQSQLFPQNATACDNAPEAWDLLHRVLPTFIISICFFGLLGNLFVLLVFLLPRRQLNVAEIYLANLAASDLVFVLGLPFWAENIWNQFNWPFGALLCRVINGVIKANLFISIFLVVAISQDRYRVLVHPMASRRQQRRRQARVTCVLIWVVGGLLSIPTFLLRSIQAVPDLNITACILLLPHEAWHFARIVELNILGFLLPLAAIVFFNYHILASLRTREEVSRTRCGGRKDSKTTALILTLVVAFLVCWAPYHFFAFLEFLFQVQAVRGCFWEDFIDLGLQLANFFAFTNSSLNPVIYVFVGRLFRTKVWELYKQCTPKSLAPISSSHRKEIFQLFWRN
How it was run: (§1)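 FLIPR Ca2+ assay in recombinant CHO K1 cells (human or rat B1R), Fluo-4 dye; 10 μM compound, 10 min, then EC-level agonist per species (0.5 nM Lys-Des-Arg9-BK human / 100 nM Des-Arg9-BK rat). Output: % inhibition vs maximum.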

B1R receptor of the rat = molecular target: T2, B1R receptor of the rat (Rattus norvegicus, UniProt P97583); experiment: Functional study on the bradykinin receptor 1 (B1R), FLIPR Ca2+ assay, rB1R cells; assay type: cell-based; conditions: agonist Des-Arg9-bradykinin 100 nM, % inhibition compared with the maximum achievable inhibition; for inhibition at 10 µM: CHO-K1, test substance 10 μM, read-out: B1R Antagonism, rat [10 μM] % Inhibition; for B1R Antagonism, rat [10 μM] % Inhibition: test substance 10 μM, rB1R CHO K1 cells
T2 construct: host or cells: CHO K1 cells (Chinese hamster ovary), stably transfected
T2 sequence (P97583 1-337): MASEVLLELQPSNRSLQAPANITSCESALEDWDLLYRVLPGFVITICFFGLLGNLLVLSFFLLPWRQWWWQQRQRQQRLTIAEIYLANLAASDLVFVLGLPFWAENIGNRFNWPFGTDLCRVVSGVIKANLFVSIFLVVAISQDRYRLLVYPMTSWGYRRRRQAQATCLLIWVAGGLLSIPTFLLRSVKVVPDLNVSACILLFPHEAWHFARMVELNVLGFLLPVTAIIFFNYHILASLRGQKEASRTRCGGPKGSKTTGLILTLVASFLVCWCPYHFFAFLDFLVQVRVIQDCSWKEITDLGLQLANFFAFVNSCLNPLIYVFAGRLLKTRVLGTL
How it was run: as §1

Compound	inhibition at 10 µM (human B1R receptor)	inhibition at 10 µM (B1R receptor of the rat)	B1R Antagonism, human [10 μM] % Inhibition (human B1R receptor)	B1R Antagonism, rat [10 μM] % Inhibition (B1R receptor of the rat)
COc1cc(C)c(S(=O)(=O)N2CCCCC2COCC(=O)Nc2ccc3ccccc3n2)c(C)c1 (stereo not shown) [Example 546, 2-((1-(4-methoxy-2,6-dimethylphenylsulfonyl)piperidin-2-yl)methoxy)-N-(quinolin-2-yl)acetamide]	7.44%	104%		
COc1ccc(S(=O)(=O)N2c3ccccc3CC2COCC(=O)N2CCC(CCN3CCCCC3)CC2)cc1 (stereo not shown) [Example 547, 2-((1-(4-methoxyphenylsulfonyl)indolin-2-yl)methoxy)-1-(4-(2-(piperidin-1-yl)ethyl)piperidin-1-yl)ethanone]	77.4%	100%		
COc1ccc(S(=O)(=O)N2c3ccccc3CC2COCC(=O)N2CCN(CCn3c(C)ccc3C)CC2)cc1 (stereo not shown) [Example 548, 1-(4-(2-(2,5-dimethyl-1H-pyrrol-1-yl)ethyl)piperazin-1-yl)-2-((1-(4-methoxyphenylsulfonyl)indolin-2-yl)methoxy)ethanone]	24.7%	95.4%		
O=C(COCC1CCCCN1S(=O)(=O)c1c(Cl)cccc1Cl)NCc1ccc(CN2CCOCC2)cc1 (stereo not shown) [Example 549, 2-((1-(2,6-dichlorophenylsulfonyl)piperidin-2-yl)methoxy)-N-(4-(morpholinomethyl)benzyl)acetamide]	75.8%	99%		
O=C(COCC1CCCCN1S(=O)(=O)c1c(Cl)cccc1Cl)N1CCN(c2ccc(C(F)(F)F)cc2)CC1 (stereo not shown) [Example 550, 2-((1-(2,6-dichlorophenylsulfonyl)piperidin-2-yl)methoxy)-1-(4-(4-(trifluoromethyl)phenyl)piperazin-1-yl)ethanone]	57.8%	101%		
O=C(COCC1CCCCN1S(=O)(=O)c1c(Cl)cccc1Cl)N1CCN(c2ncc(Cl)cc2Cl)CC1 (stereo not shown) [Example 551, 2-((1-(2,6-dichlorophenylsulfonyl)piperidin-2-yl)methoxy)-1-(4-(3,5-dichloropyridin-2-yl)piperazin-1-yl)ethanone]	52.7%	102%		
O=C(COCC1CCCCN1S(=O)(=O)c1c(Cl)cccc1Cl)N1CCN(CCO)CC1 (stereo not shown) [Example 552, 2-((1-(2,6-dichlorophenylsulfonyl)piperidin-2-yl)methoxy)-1-(4-(2-hydroxyethyl)piperazin-1-yl)ethanone]	46.8%	101%		
O=C(COCC1CCCCN1S(=O)(=O)c1c(Cl)cccc1Cl)N1CCN(c2nc3ccccc3s2)CC1 (stereo not shown) [Example 553, 1-(4-(benzo[d]thiazol-2-yl)piperazin-1-yl)-2-((1-(2,6-dichlorophenylsulfonyl)piperidin-2-yl)methoxy)ethanone]	54.1%	101%		
O=C(COCC1CCCCN1S(=O)(=O)c1c(Cl)cccc1Cl)N1CCN(c2nc3ccc(Cl)cc3s2)CC1 (stereo not shown) [Example 554, 1-(4-(6-chlorobenzo[d]thiazol-2-yl)piperazin-1-yl)-2-((1-(2,6-dichlorophenylsulfonyl)piperidin-2-yl)methoxy)ethanone]	25.2%	102%		
CCN1CCN(c2ccc(NC(=O)COCC3CCCCN3S(=O)(=O)c3ccc(OC)cc3)cc2)CC1 (stereo not shown) [Example 555, N-(4-(4-ethylpiperazin-1-yl)phenyl)-2-((1-(4-methoxyphenylsulfonyl)piperidin-2-yl)methoxy)acetamide]	62.5%	102%		
COc1ccc(S(=O)(=O)N2CCCCC2COCC(=O)Nc2ccc(N3CCOCC3)c3nonc23)cc1 (stereo not shown) [Example 556, 2-((1-(4-methoxyphenylsulfonyl)piperidin-2-yl)methoxy)-N-(7-morpholinobenzo[c][1,2,5]oxadiazol-4-yl)acetamide]	12.1%	85.6%		
COc1ccc(S(=O)(=O)N2CCCCC2COCC(=O)Nc2ccc(NC(=O)CN3CCCCC3)c(C)c2)cc1 (stereo not shown) [Example 557, 2-((1-(4-methoxyphenylsulfonyl)piperidin-2-yl)methoxy)-N-(3-methyl-4-(2-(piperidin-1-yl)acetamideo)phenyl)acetamide]			29.73%	87.56%
COc1ccc(S(=O)(=O)N2CCCCC2COCC(=O)N2CCN(CCOc3ccccc3)CC2)cc1 (stereo not shown) [Example 558, 2-((1-(4-methoxyphenylsulfonyl)piperidin-2-yl)methoxy)-1-(4-(2-phenoxyethyl)piperazin-1-yl)ethanone]	-3.53%	103%		
COc1cc(C)c(S(=O)(=O)N2CCCCC2COCC(=O)N2CCN(CCn3c(C)ccc3C)CC2)c(C)c1 (stereo not shown) [Example 559, 1-(4-(2-(2,5-dimethyl-1H-pyrrol-1-yl)ethyl)piperazin-1-yl)-2-((1-(4-methoxy-2,6-dimethylphenylsulfonyl)piperidin-2-yl)methoxy)ethanone]	99.9%	100%		
COc1cc(C)c(S(=O)(=O)N2Cc3ccccc3CC2COCC(=O)N2CCN(CCCN(C)C)CC2)c(C)c1C (stereo not shown) [Example 560, 1-(4-(3-(dimethylamino)propyl)piperazin-1-yl)-2-((2-(4-methoxy-2,3,6-trimethylphenylsulfonyl)-1,2,3,4-tetrahydroisoquinolin-3-yl)methoxy)ethanone]	102%	99.3%		
COc1cc(C)c(S(=O)(=O)N2CCCCC2COCC(=O)N(CCCN(C)C)CCCN(C)C)c(C)c1 (stereo not shown) [Example 561, N,N-bis(3-(dimethylamino)propyl)-2-((1-(4-methoxy-2,6-dimethylphenylsulfonyl)piperidin-2-yl)methoxy)acetamide]	102%	101%		
COc1cc(C)c(S(=O)(=O)N2Cc3ccccc3CC2COCC(=O)N2CCN(C3CCN(C)CC3)CC2)c(C)c1C (stereo not shown) [Example 562, 2-((2-(4-methoxy-2,3,6-trimethylphenylsulfonyl)-1,2,3,4-tetrahydroisoquinolin-3-yl)methoxy)-1-(4-(1-methylpiperidin-4-yl)piperazin-1-yl)ethanone]	102%	100%		
COc1cc(C)c(S(=O)(=O)N2Cc3ccccc3CC2COCC(=O)N2CCN(CC3CCN(C)CC3)CC2)c(C)c1C (stereo not shown) [Example 563, 2-((2-(4-methoxy-2,3,6-trimethylphenylsulfonyl)-1,2,3,4-tetrahydroisoquinolin-3-yl)methoxy)-1-(4-((1-methylpiperidin-4-yl)methyl)piperazin-1-yl)ethanone]	102%	100%		
CN(C)CCCN1CCN(C(=O)COCC2CCCCN2S(=O)(=O)c2c(Cl)cccc2Cl)CC1 (stereo not shown) [Example 564, 2-((1-(2,6-dichlorophenylsulfonyl)piperidin-2-yl)methoxy)-1-(4-(3-(dimethylamino)propyl)piperazin-1-yl)ethanone]	105%	102%		
CN1CCC(N2CCN(C(=O)COCC3CCCCN3S(=O)(=O)c3c(Cl)cccc3Cl)CC2)CC1 (stereo not shown) [Example 565, 2-((1-(2,6-dichlorophenylsulfonyl)piperidin-2-yl)methoxy)-1-(4-(1-methylpiperidin-4-yl)piperazin-1-yl)ethanone]			104.82%	102.52%
CN(C)CCCN1CCN(C(=O)COCC2CCCN2S(=O)(=O)c2c(Cl)cccc2Cl)CC1 (stereo not shown) [Example 566, 2-((1-(2,6-dichlorophenylsulfonyl)pyrrolidin-2-yl)methoxy)-1-(4-(3-(dimethylamino)propyl)piperazin-1-yl)ethanone]	103%	103%		
CN1CCC(N2CCN(C(=O)COCC3CCCN3S(=O)(=O)c3c(Cl)cccc3Cl)CC2)CC1 (stereo not shown) [Example 567, 2-((1-(2,6-dichlorophenylsulfonyl)pyrrolidin-2-yl)methoxy)-1-(4-(1-methylpiperidin-4-yl)piperazin-1-yl)ethanone]	104%	102%		
Cc1cc(S(=O)(=O)N2CCCCC2COCC(=O)N2CCN(Cc3ccccc3)CC2)c(C)cc1Cl (stereo not shown) [Example 568, 1-(4-benzylpiperazin-1-yl)-2-((1-(4-chloro-2,5-dimethylphenylsulfonyl)piperidin-2-yl)methoxy)ethanone]	38.5%	81.3%		
